We go through 33 compounds from patent US9334263B2, “Compositions useful for treating disorders related to kit” (BLUEPRINT MEDICINES CORPORATION, priority 2013, dated 2016).

For assay [1], the target named is T1, D816V Kit (Homo sapiens, UniProt P10721, D816V).
T1 construct: purchased Carna Bioscience 08-156
Nature of the assay: Kit D816V assay at Km (Caliper electrophoretic mobility shift). The class given is biochemical. Particulars: 15 uM ATP, 25 C, 90 minutes. In a few lines:
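Read-out is the ratio of phosphorylated to unphosphorylated fluorescent peptide, resolved by mobility shift on a Caliper EZ Reader 2.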

The target in assay [2] is T2, wild type Kit (Homo sapiens, UniProt P10721).
T2 construct: purchased Carna Bioscience 08-156
T2 sequence (P10721 26-976): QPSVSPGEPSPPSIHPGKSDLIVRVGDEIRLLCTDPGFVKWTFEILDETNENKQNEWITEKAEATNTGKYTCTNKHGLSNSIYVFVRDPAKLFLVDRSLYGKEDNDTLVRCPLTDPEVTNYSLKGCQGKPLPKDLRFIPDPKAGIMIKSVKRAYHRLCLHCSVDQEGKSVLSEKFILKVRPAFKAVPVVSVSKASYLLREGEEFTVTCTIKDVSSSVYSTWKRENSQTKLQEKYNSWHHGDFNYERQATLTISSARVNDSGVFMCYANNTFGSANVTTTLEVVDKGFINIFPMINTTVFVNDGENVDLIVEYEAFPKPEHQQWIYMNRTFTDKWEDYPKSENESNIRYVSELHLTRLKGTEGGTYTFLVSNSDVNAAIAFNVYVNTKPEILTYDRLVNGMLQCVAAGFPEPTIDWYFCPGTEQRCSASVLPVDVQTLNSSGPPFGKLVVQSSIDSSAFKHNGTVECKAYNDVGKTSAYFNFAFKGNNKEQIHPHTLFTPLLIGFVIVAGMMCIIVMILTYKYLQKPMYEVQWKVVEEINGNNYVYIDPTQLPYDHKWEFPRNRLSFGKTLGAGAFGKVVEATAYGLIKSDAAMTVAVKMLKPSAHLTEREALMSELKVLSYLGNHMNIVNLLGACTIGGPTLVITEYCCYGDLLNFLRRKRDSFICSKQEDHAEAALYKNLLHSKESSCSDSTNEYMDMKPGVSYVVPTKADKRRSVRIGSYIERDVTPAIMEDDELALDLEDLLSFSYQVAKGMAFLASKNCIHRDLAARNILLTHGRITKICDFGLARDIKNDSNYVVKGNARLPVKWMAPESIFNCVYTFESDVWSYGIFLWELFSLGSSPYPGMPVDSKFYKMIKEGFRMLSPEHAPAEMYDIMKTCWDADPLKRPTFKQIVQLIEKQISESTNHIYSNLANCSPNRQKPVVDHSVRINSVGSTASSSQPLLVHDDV
Nature of the assay: Kit wild type assay at Km (Caliper electrophoretic mobility shift). The format is biochemical. Particulars: 400 uM ATP, 25 C, 90 minutes; read-out: WT KIT. The protocol:
In order to assess the activity of chemical compounds against the relevant kinase of interest, the Caliper LifeSciences electrophoretic mobility shift technology platform is used. Fluorescently labeled substrate peptide is incubated in the presence of kinase and ATP so that a […] proportion of the peptide is phosphorylated. At the end of the reaction, the mix of phosphorylated (product) and non-phosphorylated (substrate) peptides are passed through the microfluidic system of the Caliper EZ Reader 2, under an applied potential difference. The presence of the phosphate group on the product peptide provides a difference in mass and charge between those of the substrate peptide, resulting in a separation of the substrate and product pools in the sample. As the pools pass a LEDS within the instrument, these pools are detected and resolved as separate peaks. The ratio between these peaks therefore reflects the activity of the chemical matter at that concentration in that well, under those conditions.
The reaction was stopped by the addition of 70 ul of Stop buffer (100 mM HEPES pH 7.5, 0.015% Brij 35, 35 mM EDTA and 0.2% of Coating Reagent 3 (Caliper Lifesciences)). The plate was then read on a Caliper EZReader 2 (protocol settings: −1.9 psi, upstream voltage −700, downstream voltage −3000, post sample sip 35 s).

The target of assay [3] is T3, Kit D816V (HMC1.2 cells, Kit V560G and D816V) (Homo sapiens, UniProt P10721, D816V/V560G).
T3 construct: endogenous in cells; host or cells: HMC1.2 cells
T3 sequence (P10721 26-976 V560G/D816V): as the sequence (P10721 26-976) above, with V535G, D791V counted along it
Nature of the assay: HMC1.2 autophosphorylation assay (AlphaLISA, phospho-Y719 c-Kit). The class given is cell-based. Particulars: Kit autophosphorylation at tyrosine 719, 90 minutes, read-out: Cellular Activity. In a few lines:
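Serum-starved (overnight, serum-free IMDM) HMC1.2 cells were treated for 90 min with a 10-point compound series (25 uM–95.4 pM, 0.25% DMSO final). Lysates were probed with phospho-Y719 and total c-Kit antibodies (15 nM final) plus AlphaLISA acceptor and streptavidin donor beads (2 h each, RT), with AlphaScreen read-out.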
A general note: Bead proximity is the source of the signal in Alpha formats.

T1 sequence (P10721 26-976 D816V): as the sequence (P10721 26-976) above, with D791V counted along it

As to `CN1CCC[C@H](Oc2ccc(Nc3ncnc(N4CCN(c5ncc(Cc6ccccc6)cn5)CC4)n3)cc2)C1` [Compound 217], the IC50 in assay [1] was below 1 nM; in assay [2], below 10 nM; in assay [3] it was below 10 nM.

On to `Oc1ccccc1Cc1cnc(N2CCN(c3ncnc(Nc4ccc5c(c4)CNCC5)n3)CC2)nc1` [Compound 115], for which the IC50 is below 1 nM in assay [1], below 10 nM in assay [2] and 10 to 100 nM in assay [3].

In the case of `c1ccc(Cc2cnc(N3CCN(c4ncnc(Nc5cnn(CC6CCOCC6)c5)n4)CC3)nc2)cc1` [Compound 118], the figures for the IC50 in assay [1], in assay [2] and in assay [3] were below 1 nM, below 10 nM and 10 to 100 nM, respectively.

Consider `CP(C)(=O)c1ccc(Nc2ncnc(N3CCN(c4ncc(Nc5ccc(F)cc5)cn4)CC3)n2)cc1` [Compound 144], for which the values for the IC50 in assay [1], in assay [2] and in assay [3] were 1.01 to 10 nM, 11 to 100 nM and 100 to 1000 nM, respectively.

On to `COCCN1CCc2ccc(Nc3ncnc(N4CCN(c5ncc(Cc6ccccc6)cn5)CC4)n3)cc2C1` [Compound 215], for which the results for the IC50 in assay [1], in assay [2] and in assay [3] were below 1 nM, below 10 nM and 10 to 100 nM, respectively.

For `CN(C)Cc1cccc(Nc2ncnc(N3CCN(c4ncc(Cc5ccccc5)cn4)CC3)n2)c1` [Compound 49], the IC50 is below 1 nM in assay [1], 11 to 100 nM in assay [2] and 10 to 100 nM in assay [3].

For the compound `NS(=O)(=O)c1ccc(Nc2ncnc(N3CCN(c4ncc(Cc5ccccc5)cn4)CC3)n2)cc1` [Compound 96], the IC50 in assay [1] was below 1 nM; in assay [2], 11 to 100 nM; in assay [3] it was 100 to 1000 nM.

With `OCCC1CN(c2ncnc(Nc3ccc4c(c3)CNCC4)n2)CCN1c1ncc(Cc2ccccc2)cn1` (stereo not drawn) [Compound 164], the IC50 was below 1 nM in assay [1], below 10 nM in assay [2] and below 10 nM in assay [3].

As for `CN(C)CCn1cc(Nc2ncnc(N3CCN(c4ncc(Cc5ccccc5)cn4)CC3)n2)cn1` [Compound 60], the IC50 in assay [1] is below 1 nM; in assay [2], 11 to 100 nM; in assay [3], 10 to 100 nM.

`c1ccc(Cc2cnc(N3CCN(c4ncnc(Nc5ccc(OC[C@@H]6CCCN6)cc5)n4)CC3)nc2)cc1` [Compound 170]: the IC50 in assay [1] was below 1 nM; in assay [2], 11 to 100 nM; in assay [3] it was 10 to 100 nM.

As for `CN1CCC[C@@H]1COc1ccc(Nc2ncnc(N3CCN(c4ncc(Cc5ccccc5)c(N)n4)CC3)n2)cc1` [Compound 265], the results for the IC50 in assay [1], in assay [2] and in assay [3] were below 1 nM, below 10 nM and below 10 nM, respectively.

Turning to `CC(=O)NCc1cccc(Nc2ncnc(N3CCN(c4ncc(Cc5ccccc5)cn4)CC3)n2)c1` [Compound 74], the values for the IC50 in assay [1], in assay [2] and in assay [3] were below 1 nM, 11 to 100 nM and 10 to 100 nM, respectively.

In the case of `c1ccc(Cc2cnc(N3CCN(c4ncnc(Nc5cnn(C[C@H]6CCCN6)c5)n4)CC3)nc2)cc1` [Compound 84], the IC50 in assay [1] is below 1 nM; in assay [2] it was below 10 nM; in assay [3], 10 to 100 nM.

`CP(C)(=O)c1ccc(Nc2ncnc(N3CCN(c4ncc(Cc5ccccc5)cn4)CC3)n2)cc1` [Compound 89]: the IC50 in assay [1] was below 1 nM; in assay [2] it was 11 to 100 nM; in assay [3], 100 to 1000 nM.

As to `OCc1ccc(Nc2ncnc(N3CCN(c4ncc(Cc5ccccc5)cn4)CC3)n2)cc1` [Compound 16], the IC50 in assay [1] is below 1 nM; in assay [2], 11 to 100 nM; in assay [3], 100 to 1000 nM.

`CS(=O)(=O)c1ccc(Nc2ncnc(N3CCN(c4ncc(Cc5ccccc5)c(O)n4)CC3)n2)cc1` [Compound 143]: the IC50 fell in the range of 1.01 to 10 nM in assay [1], 11 to 100 nM in assay [2] and 100 to 1000 nM in assay [3].

As for `CN1CCO[C@H](Cn2cc(Nc3ncnc(N4CCN(c5ncc(Cc6ccccc6)cn5)CC4)n3)cn2)C1` [Compound 181], the IC50 is below 1 nM in assay [1], below 10 nM in assay [2] and 10 to 100 nM in assay [3].

Turning to `c1ccc(Nc2cnc(N3CCN(c4ncnc(Nc5ccc(N6CCOCC6)cc5)n4)CC3)nc2)cc1` [Compound 114], the IC50 in assay [1] was 1.01 to 10 nM; in assay [2], 100 to 1000 nM; in assay [3], 100 to 1000 nM.

For `FC1(F)CN(Cc2cccc(Nc3ncnc(N4CCN(c5ncc(Cc6ccccc6)cn5)CC4)n3)c2)C1` [Compound 188], the IC50 lay in the range of 1.01 to 10 nM in assay [1], 11 to 100 nM in assay [2] and 10 to 100 nM in assay [3].

Regarding `Fc1ccccc1Cc1cnc(N2CCN(c3ncnc(Nc4ccc5c(c4)CNCC5)n3)CC2)nc1` [Compound 127], the results for the IC50 in assay [1], in assay [2] and in assay [3] were below 1 nM, below 10 nM and 10 to 100 nM, respectively.

As for `Cc1cc(N2CCN(C)CC2)ccc1Nc1ncnc(N2CCN(c3ncc(Cc4ccccc4)cn3)CC2)n1` [Compound 212], the IC50 in assay [1] is 1.01 to 10 nM; in assay [2] it was 11 to 100 nM; in assay [3] it was 100 to 1000 nM.

In the case of `c1ccc(Cc2cnc(N3CCN(c4ncnc(Nc5ccccc5)n4)CC3)nc2)cc1` [Compound 7], the IC50 in assay [1] was in the range of 1.01 to 10 nM; in assay [2], 11 to 100 nM; in assay [3], 1000 to 10000 nM.

In the case of `C[C@@H]1CN(c2ncnc(Nc3ccc(P(C)(C)=O)cc3)n2)CCN1c1ncc(Cc2ccccc2)cn1` [Compound 128], the IC50 in assay [1] lay in the range of 1.01 to 10 nM; in assay [2] it was 11 to 100 nM; in assay [3], 100 to 1000 nM.

With `c1ccc(Cc2cnc(N3CCN(c4ncnc(Nc5ccc6c(c5)NCCC6)n4)CC3)nc2)cc1` [Compound 42], the IC50 in assay [1] lay within 1.01 to 10 nM; in assay [2], 11 to 100 nM; in assay [3], 10 to 100 nM.

With `Cc1cc(N2CCNCC2)ccc1Nc1ncnc(N2CCN(c3ncc(Cc4ccccc4)cn3)CC2)n1` [Compound 158], the IC50 was in the range of 1.01 to 10 nM in assay [1], 11 to 100 nM in assay [2] and 100 to 1000 nM in assay [3].

Regarding `OC[C@@H]1CCCN1c1ccc(Nc2ncnc(N3CCN(c4ncc(Cc5ccccc5)cn4)CC3)n2)cc1` [Compound 168], the IC50 in assay [1] is 1.01 to 10 nM; in assay [2] it was 11 to 100 nM; in assay [3], 10 to 100 nM.

As to `CN1CCC[C@@H]1COc1ccc(Nc2ncnc(N3CCN(c4ncc(Cc5ccccc5)cn4)CC3)n2)cc1` [Compound 218], the IC50 in assay [1] was below 1 nM; in assay [2] it was below 10 nM; in assay [3], 10 to 100 nM.

`c1ccc(Cc2cnc(N3CCN(c4ncnc(Nc5ccc(N6CCOCC6)cc5)n4)CC3)nc2)cc1` [Compound 103]: the IC50 lay in the range of 1.01 to 10 nM in assay [1], 11 to 100 nM in assay [2] and 100 to 1000 nM in assay [3].

In the case of `CN1CCC[C@H]1COc1ccc(Nc2ncnc(N3CCN(c4ncc(Cc5ccccc5)c(N)n4)CC3)n2)cc1` [Compound 266], the IC50 is below 1 nM in assay [1], below 10 nM in assay [2] and below 10 nM in assay [3].

For the compound `NC(=O)c1ccc(Nc2ncnc(N3CCN(c4ncc(Cc5ccccc5)cn4)CC3)n2)cc1` [Compound 24], the IC50 in assay [1] was in the range of 1.01 to 10 nM; in assay [2] it was 11 to 100 nM; in assay [3], 100 to 1000 nM.

`c1ccc(Cc2cnc(N3CCN(c4ncnc(NCCCN5CCOCC5)n4)CC3)nc2)cc1` [Compound 37]: the values for the IC50 in assay [1] and in assay [2] were above 100 nM and above 1000 nM, respectively.

For `N#Cc1ccc(NC(=O)N2CCN(c3ncnc(Nc4ccc(N5CCOCC5)cc4)n3)CC2)cc1` [Compound 59], the results for the IC50 in assay [1] and in assay [2] were above 100 nM and 100 to 1000 nM, respectively.

In the case of `c1ccc(Nc2cnc(N3CCN(c4ncnc(Nc5ccccc5)n4)CC3)nc2)cc1` [Compound 9], the IC50 fell in the range of 10 to 100 nM in assay [1] and 100 to 1000 nM in assay [2].
